Experimental findings from the NIST ThermoML archive (doi:10.1016/j.jct.2019.06.026) are described below.

Numbers after ± are expanded uncertainties.

For the data set the following is noted: Liquid, Ebulliometric method (Recirculating still).

As to `OCC(F)(F)C(F)F` [2,2,3,3-tetrafluoro-1-propanol], the “vapor or sublimation pressure” value (381.95 K) came out at 101.3 ± 3.6 kPa.
For `CNC=O` [N-methylformamide], for the setting “471.2 K”, the “vapor or sublimation pressure” value was found to be 101.3 ± 3.6 kPa.
As to `CN1CCCC1=O` [N-methylpyrrolidone], the “vapor or sublimation pressure” value (476.05 K) was 101.3 ± 3.6 kPa.
Take `CN(C)C=O` [dimethylformamide]: under “426.05 K”, the “vapor or sublimation pressure” value came out at 101.3 ± 3.6 kPa.
